Reference: US12029721B2, “Compositions comprising cannabinoids and methods of use” (Schedule 1 Therapeutics, Inc., priority 2021, dated 2024)

Legend:
Assay type in all cases: in vivo, mouse
wild-type CD1 mice [1] = test: Rotarod assay (motor function); conditions: for time to fall from the rod, average across 3 trials on treatment day: FIG. 11, CBD 100 mg/kg, THC 1 mg/kg, 1:1, 100:1 given 60 min before, diazepam 5 mg/kg i.p. 30 min before; for latency to fall from the rod (motor function): FIG. 1A, first cohort, 3 consecutive 5 min trials, caffeine 100 mg/kg i.p. as positive control
Method: Locomotor function was assessed using the rotarod (see Assay description and relevant methods in Example 5). Mice are placed on a turning rod with increasing speed of rotation. Latency to fall from the rod is collected.
The rotarod assay was used to measure impaired motor function in mice. The assay is divided into three trials of 5 min each separated by 10 min of resting time. For each trial, mice are place on a stationary rod. Once the animal is in place, the rod rotation was initiated at a rate of 4 rpm per min, with increasing speed up to 60 rpm at 5 min. Each animal was trained for two days following this protocol and tested on the third day. The latency to fall from the rod was reported as the mean+/−SEM of all the mice for each trial.
A week after Y-maze, motor function was assessed using rotarod. Administration of drugs was performed 60 min prior to testing except for caffeine (positive control) which was administered 30 min prior to testing.
Animals used in this experiment were also used for light aversion and spatial memory, and were tested a third time in the rotarod assay. Briefly, two weeks after the last Y-maze run, animals were subjected to 3 consecutive days of rotarod assay. The first two days were used for habituation, then animals were divided in 6 different treatment groups: • negative control group: vehicle (sunflower oil), • positive control group: diazepam (5 mg/kg i.p.), • CBD (100 mg/kg), • THC (1 mg/kg), • 1:1 (1 mg/kg of both CBD and THC), and • 100:1 (100 mg/kg of CBD and 1 mg/kg of THC).
All treatments were administered 60 minutes prior to the third day of rotarod assay, except for diazepam which was administered 30 minutes prior to the assay.

wild-type CD1 mice [2] = test: Light/dark assay, CGRP-induced light aversion (Test 1)
Method: All drugs were administered by intraperitoneal (i.p.) injection. CGRP and caffeine were administered at 10 μl/g bodyweight with a 30 g×0.5 needle. CBD, THC and the diverse ratios of CBD:THC were administered at 3.3 μl/g bodyweight with a 23 g×0.5 needle. Rat α-CGRP (Sigma-Aldrich, USA) was administered at 0.1 mg/kg, caffeine (Sigma-Aldrich, USA) was administered at 100 mg/kg, and both were diluted in vehicle, Dulbecco PBS (Hyclone, GE Healthcare Life Science, USA). CBD was administered at 1 or 100 mg/kg, THC was administered at 1 mg/kg, and both were diluted in vehicle sunflower oil (Sigma-Aldrich, USA) Animals were gently held but not anesthetized during injection. Mice were allowed to recover for 30 to 60 min in their home cages before testing (see figure legend and experimental design for precisions).
(§1) The light/dark assay was used to measure the animals' aversion to bright light, which is a surrogate for photophobia. Briefly, mice are placed individually in light/dark boxes that consist in two compartments, one brightly lit and the other not lit, black and fully enclosed. Mice can move freely in between them. An infrared beam tracking system (Med Associates) monitors and quantifies the behavior. Light-aversive animals will spend more time in the dark compartment than naïve animals Data were collected using Activity Monitor version 7.06 from twelve chambers as previously described. Mice were pre-exposed to the chamber once (baseline, data not shown) to reduce exploratory drive, then tested with bright light (25,000 lux). Data were collected for 30 min and analyzed in sequential 5 min intervals. The time in light was reported as the mean+/−SEM of all the mice at each interval and as the mean+/−SEM of the average time per interval for each individual mouse.
Test 1: test the efficacy of CBD and/or THC on CGRP-induced light aversion. Drug administration was performed i.p. by ASW or AK, 60 minutes prior to testing. Thirty minutes before testing, animals were injected a second time with CGRP (0.1 mg/kg) in order to induce the migraine-like state. Only one group was administered with PBS and represents the negative control in this run. The group that received sunflower oil+CGRP represents the positive control. Those injections were also performed i.p by ASW or AK. Thirty minutes later, animals were placed in the light aversion chambers, and tested for 30 minutes.

wild-type CD1 mice [3] = test: Y-maze assay (spatial memory); conditions: treatments 55 minutes prior to the first trial; CBD 100 mg/kg, THC 1 mg/kg, 1:1, 100:1
Method: The Y-maze assay was used to measure spatial memory using a 3-arm maze. The assay is divided into two trials separated by an intertrial period. During the first trial, one arm (novel arm) is closed, and mice are left to explore the two other arms for 5 min. Mice are then placed back in their home cages for the 2 min intertrial period. During the second trial, mice are able to explore all arms. A mouse with a good spatial memory will enter the previously unexplored (novel) arm more frequently than the other arms. A mouse with poor spatial memory will show no preference. The number of entries and time in the novel arm during the second trial was reported as the mean+/−SEM of all the mice at each interval (30 sec) and as the mean+/−SEM of the total time for the trial for each individual mouse.
A week after Test 2, spatial memory was assessed using Y-maze. Administration of drugs was performed 60 min prior to testing except for CGRP (positive control) which was administered 30 min prior to testing.
Animals used in this experiment were also used for light aversion (and later rotarod). […]
All treatments were administered 55 minutes prior to the first 5-minute trial, and therefore 62 minutes before the second 2-minute trial. No effect of CBD, THC and CBD:THC ratios on spatial memory was assessed by the Y-maze.

wild-type CD1 mice [4] = test: Light/dark assay without CGRP trigger (Test 2); conditions: FIG. 4, absence of the CGRP trigger; average per 5 minutes
Text: as §1
Test 2: test the possible effects of CBD and/or THC by themselves on light aversion. Animals were given a week to recover. Then the same groups were used for Test 2, and only the second injection was reversed. All groups received vehicle 30 minutes before testing, except for the first group that was administered with CGRP and was the positive control for this test. […]

[5] = FIG. 5A, all mice, co-administered with CGRP
[6] = FIGS. 3A-3B, all mice, drugs i.p. 60 min, CGRP 0.1 mg/kg 30 min before testing, CBD 100 mg/kg, THC 1 mg/kg

For `C=C(C)[C@@H]1CCC(C)=C[C@H]1c1c(O)cc(CCCCC)cc1O` [CBD, cannabidiol], the “time to fall from the rod, average across 3 trials on treatment day” value (“time to fall from the rod” below) (wild-type CD1 mice [1]) was “yielded similar results as the vehicle group”, the “time spent resting in the dark (CGRP-induced increase)” value (wild-type CD1 mice [2]; [5]) was “neither CBD alone nor the 1:1 ratio reversed this increased resting time” and the “time spent in the light (CGRP-induced light aversion)” value (“time spent in the light” for short) (wild-type CD1 mice [2]; [6]) was “failed to reverse the CGRP-induced decrease in time spent in the light”. The “spatial memory: number of entries and time spent in the novel arm during trial 2” value (wild-type CD1 mice [3]) was “No effect”.
For `CCCCCc1cc(O)c2c(c1)OC(C)(C)[C@@H]1CCC(C)=C[C@@H]21` [THC, tetrahydrocannabinol], the “latency to fall from the rod (motor function)” value (wild-type CD1 mice [1]) was “seemed to increase motor function (trend only)”, the “time to fall from the rod” value (wild-type CD1 mice [1]) was “showed increases in time to fall that were not significant” and the “time spent resting in the dark (CGRP-induced increase)” value (wild-type CD1 mice [2]; [5]) was “seem to attenuate the phenotype”. The “time spent resting in the dark (CGRP-induced increase)” value (wild-type CD1 mice [2]; FIG. 5C, male mice) was “seemed to have an effect”, the “time spent in the light” value (wild-type CD1 mice [2]; [6]) was “failed to reverse the CGRP-induced decrease in time spent in the light” and the “spatial memory: number of entries and time spent in the novel arm during trial 2” value (wild-type CD1 mice [3]) was “No effect”.
`Cn1c(=O)c2c(ncn2C)n(C)c1=O` [caffeine] was tested, and the “latency to fall from the rod (motor function)” value (wild-type CD1 mice [1]) was “didn't yield the expected results”.
With `CN1C(=O)CN=C(c2ccccc2)c2cc(Cl)ccc21` [diazepam] the “latency to fall from the rod” value (wild-type CD1 mice [1]; FIG. 1B, rotarod trial with diazepam as positive control) was “produced the expected increased time to fall” and the “time to fall from the rod” value (wild-type CD1 mice [1]) was “showed a robust decrease in time to fall from the rod”.
In the case of calcitonin gene-related peptide [CGRP], the “time spent in the light” value (wild-type CD1 mice [2]; FIG. 3D, male mice) is reported as “inducing a strong and significant decrease of the time spent in the light compartment”, the “time spent resting in the dark (CGRP-induced increase)” value (wild-type CD1 mice [2]; [5]) is reported as “induces a significant increase in the time spent resting in the dark” and the “time spent resting in the light compartment” value (wild-type CD1 mice [2]; FIG. 6, data as a function of time) is reported as “does not increase the time spent resting in the light compartment”. The “time spent in the light” value (wild-type CD1 mice [2]; FIG. 7, experiment with 30:1, 100:1 as control ratio) was “induces a significant decrease in time spent in the light”, the “time spent in the light” value (wild-type CD1 mice [2]; [6]) was “induces a significant decrease in time spent in the light” and the “average time in the light” value (wild-type CD1 mice [4]) was “spending less time in the light than the veh+veh mice”.
